Consider 4 compounds from patent publication US9828374B2, “Substituted pyrazino[2,2-a]isoquinoline derivatives” (Hoffmann-La Roche Inc., priority 2014, dated 2017).

SMILES strings stand for the structures.

The target of test [1] is rat TAAR1 (Rattus norvegicus (Rat), UniProt Q923Y9). In words: Radioligand binding assay on rat TAAR1. The conditions noted are these: rat TAAR1, HEK-293 membranes; second value of the mouse/rat pair. The procedure: (§1) Construction of TAAR Expression Plasmids and Stably Transfected Cell Lines
Chain of rat TAAR1 (Q923Y9 whole entry): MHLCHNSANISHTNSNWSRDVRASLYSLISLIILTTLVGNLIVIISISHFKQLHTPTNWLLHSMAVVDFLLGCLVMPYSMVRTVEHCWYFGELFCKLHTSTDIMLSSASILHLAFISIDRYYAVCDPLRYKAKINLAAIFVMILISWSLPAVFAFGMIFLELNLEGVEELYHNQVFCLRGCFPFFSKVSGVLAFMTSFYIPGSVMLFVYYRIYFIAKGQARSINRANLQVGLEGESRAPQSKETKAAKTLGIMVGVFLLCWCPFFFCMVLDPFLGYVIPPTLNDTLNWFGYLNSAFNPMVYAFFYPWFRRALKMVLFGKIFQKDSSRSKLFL
(§2) For the construction of expression plasmids the coding sequences of human, rat and mouse TAAR 1 were amplified from genomic DNA essentially as described by Lindemann et al..
(§3) The Expand High Fidelity PCR System (Roche Diagnostics) was used with 1.5 mM Mg^2+ and purified PCR products were cloned into pCR2.1-TOPO cloning vector (Invitrogen) following the instructions of the manufacturer. PCR products were subcloned into the pIRESneo2 vector (BD Clontech, Palo Alto, Calif.), and expression vectors were sequence verified before introduction in cell lines.
(§4) HEK293 cells (ATCC # CRL-1573) were cultured essentially as described by Lindemann et al. (2005). For the generation of stably transfected cell lines HEK293 cells were transfected with the pIRESneo2 expression plasmids containing the TAAR coding sequences (described above) with Lipofectamine 2000 (Invitrogen) according to the instructions of the manufacturer, and 24 hrs post transfection the culture medium was supplemented with 1 mg/ml G418 (Sigma, Buchs, Switzerland). After a culture period of about 10 d clones were isolated, expanded and tested for responsiveness to trace amines (all compounds purchased from Sigma) with the cAMP Biotrak Enzyme immunoassay (EIA) System (Amersham) following the non-acetylation EIA procedure provided by the manufacturer.
Radioligand Binding Assay on Rat TAAR1
(§5) Membrane Preparation and Radioligand Binding.
(§6) HEK-293 cells stably expressing rat TAAR1 were maintained at 37° C. and 5% CO2 in DMEM high glucose medium, containing fetal calf serum (10%, heat inactivated for 30 min at 56° C.), penicillin/streptomycin (1%), and 375 μg/ml geneticin (Gibco). Cells were released from culture flasks using trypsin/EDTA, harvested, washed twice with ice-cold PBS (without Ca^2+ and Mg^2+), pelleted at 1,000 rpm for 5 min at 4° C., frozen and stored at −80° C. Frozen pellets were suspended in 20 ml HEPES-NaOH (20 mM, pH 7.4) containing 10 mM EDTA and homogenized with a Polytron (PT 6000, Kinematica) at 14,000 rpm for 20 s. The homogenate was centrifuged at 48,000×g for 30 min at 4° C. Subsequently, the supernatant was removed and discarded, and the pellet resuspended in 20 ml HEPES-NaOH (20 mM, pH 7.4) containing 0.1 mM EDTA using the Polytron (20 s at 14,000 rpm). This procedure was repeated and the final pellet resuspended in HEPES-NaOH containing 0.1 mM EDTA and homogenized using the Polytron. Typically, aliquots of 2 ml membrane portions were stored at −80° C. With each new membrane batch the dissociation constant (Kd) was determined via a saturation curve. […] Nonspecific binding was defined as the amount of [H]-(S)-4-[(ethyl-phenyl-amino)-methyl]-4,5-dihydro-oxazol-2-ylamine bound in the presence of 10 μM unlabeled ligand. All compounds were tested at a broad range of concentrations (10 μM to 10 μM) in duplicates. […] The 96 deep well plates were incubated for 1 hr at 4° C. Incubations were terminated by rapid filtration through Unifilter-96 plates (Packard Instrument Company) and glass filters GF/C (Perkin Elmer) presoaked for 1 hr in polyethylenimine (0.3%) and washed 3 times with 1 ml of cold binding buffer. After addition of 45 μl of Microscint 40 (PerkinElmer) the Unifilter-96 plate was sealed and after 1 hr the radioactivity counted using a TopCount Microplate Scintillation Counter (Packard Instrument Company).

Test [2] has as its target mouse TAAR1 (Mus musculus (Mouse), UniProt Q923Y8). Nature of the test: Radioligand binding assay on mouse TAAR1. The conditions noted are these: mouse TAAR1, HEK-293 membranes; first value of the mouse/rat pair. The procedure: as §1, §2, §3, §4
Radioligand Binding Assay on Mouse TAAR1
as §5
as §6, with “expressing mouse” for “expressing rat”, “of ^3[H]-(S)-4-[(ethyl-phenyl-amino)-methyl]-4,5-dihydro-oxazol-2-ylamine” for “of [H]-(S)-4-[(ethyl-phenyl-amino)-methyl]-4,5-dihydro-oxazol-2-ylamine”, “(10 pM” for “(10 μM”

Chain of mouse TAAR1 (Q923Y8 whole entry): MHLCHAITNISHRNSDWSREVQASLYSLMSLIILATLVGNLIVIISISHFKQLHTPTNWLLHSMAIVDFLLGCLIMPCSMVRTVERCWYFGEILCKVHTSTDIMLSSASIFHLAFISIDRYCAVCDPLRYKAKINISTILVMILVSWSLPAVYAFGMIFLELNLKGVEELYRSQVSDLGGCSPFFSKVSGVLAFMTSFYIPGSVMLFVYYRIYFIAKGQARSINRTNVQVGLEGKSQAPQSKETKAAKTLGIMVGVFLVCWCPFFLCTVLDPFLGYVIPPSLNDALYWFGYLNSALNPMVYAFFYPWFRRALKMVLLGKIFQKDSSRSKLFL

`CCc1ccc2c(c1)CCN1CCNC[C@@H]21` [Example 27, (11bR)-9-ethyl-2,3,4,6,7,11b-hexahydro-1H-pyrazino[2,1-a]isoquinoline]: the results for the Ki in test [1] and in test [2] were 0.288 µM and 0.266 µM, respectively.

For the compound `Cc1cc(C(=O)Nc2ccc3c(c2)CCN2CCNC[C@@H]32)nc(C(F)(F)F)n1` [Example 38, (R)-N-(2,3,4,6,7,11b-hexahydro-1H-pyrazino[2,1-a]isoquinolin-9-yl)-6-methyl-2-(trifluoromethyl)pyrimidine-4-carboxamide], the figures for the Ki in test [1] and in test [2] were 0.157 µM and 0.222 µM, respectively.

Take `c1cc2c(cc1Nc1nc(C3CC3)no1)CCN1CCNC[C@@H]21` [Example 37, N-[(11R)-2,3,4,6,7,11-hexahydro-1H-pyrazino[2,1-a]isoquinolin-9-yl]-3-cyclopropyl-1,2,4-oxadiazol-5-amine]: the figures for the inhibition constant (Ki) in test [1] and in test [2] were 0.198 µM and 0.0347 µM, respectively.

Consider `O=C(NCc1cccc(C(F)(F)F)c1)c1ccc2c(c1)CCN1CCNC[C@@H]21` [Example 43, (11bR)-N-[[3-(trifluoromethyl)phenyl]methyl]-2,3,4,6,7,11b-hexahydro-1H-pyrazino[2,1-a]isoquinoline-9-carboxamide], for which the Ki in test [1] turned out to be 0.137 µM; in test [2], 0.0301 µM.
